Biological target: aryl hydrocarbon receptor (AhR) (Homo sapiens, UniProt P35869)
Test: [3H]TCDD radioligand competition in whole T47D cells
Assay type: cell-based

aryl hydrocarbon receptor (AhR), sequence (P35869 11-848): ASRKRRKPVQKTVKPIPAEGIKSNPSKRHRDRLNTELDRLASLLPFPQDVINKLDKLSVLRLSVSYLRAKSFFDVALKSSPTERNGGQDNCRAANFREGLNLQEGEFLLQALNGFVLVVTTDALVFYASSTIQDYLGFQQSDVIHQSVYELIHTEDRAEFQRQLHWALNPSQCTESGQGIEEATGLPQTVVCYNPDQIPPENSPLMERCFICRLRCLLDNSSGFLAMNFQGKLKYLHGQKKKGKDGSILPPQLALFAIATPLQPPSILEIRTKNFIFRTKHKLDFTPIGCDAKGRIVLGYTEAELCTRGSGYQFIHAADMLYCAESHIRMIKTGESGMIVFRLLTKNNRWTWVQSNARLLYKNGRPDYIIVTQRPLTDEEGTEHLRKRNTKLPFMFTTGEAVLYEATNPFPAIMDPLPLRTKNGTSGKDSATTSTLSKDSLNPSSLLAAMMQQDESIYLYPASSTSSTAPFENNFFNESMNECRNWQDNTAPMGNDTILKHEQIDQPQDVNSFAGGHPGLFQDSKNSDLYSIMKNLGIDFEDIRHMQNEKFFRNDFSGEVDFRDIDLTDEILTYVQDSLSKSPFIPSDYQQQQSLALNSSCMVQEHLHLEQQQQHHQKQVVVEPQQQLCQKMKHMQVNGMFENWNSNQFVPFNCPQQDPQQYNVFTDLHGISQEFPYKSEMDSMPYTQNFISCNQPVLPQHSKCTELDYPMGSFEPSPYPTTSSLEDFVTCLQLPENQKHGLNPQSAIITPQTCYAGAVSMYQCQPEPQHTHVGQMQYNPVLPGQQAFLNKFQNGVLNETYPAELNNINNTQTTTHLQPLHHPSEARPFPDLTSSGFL

IC50: 158 nM
SMILES: O=C(O)/C=C/c1ccc(O)c(O)c1 [caffeic acid]
